Structures can show the parent of a compound that is named as a salt.

The source of these data is the RepoRT retention time repository (doi:10.1093/pcp/pcn183).

The data set is described as follows: RP, Waters ACQUITY UPLC BEH C18, 38 °C, 0.24 mL/min; A: water + 0.1% formic acid, pH 3; B: acetonitrile + 0.1% formic acid, pH 3; gradient (min/%B) 0/0 0.25/0 0.4/9 0.8/17 1.9/100 2.1/100 2.11/0 3/0. As to conditions: stereoisomer not certain.
Turning to `CC1OC(OCC2OC(Oc3c(-c4ccccc4O)oc4cc(O)cc(O)c4c3=O)C(O)C(O)C2O)C(O)C(O)C1O` (configuration not stated) [Datiscin], the LC retention time turned out to be 1.4 min. Under `OCC1OC(Oc2cc3c(O)cc(O)cc3[o+]c2-c2cc(O)c(O)c(O)c2)C(O)C(O)C1O` (stereo not drawn) [Delphinidin-3-O-beta-glucopyranoside] stands 1.16 min. For `OCCNCCO` [Diethanolamine], the LC retention time was determined as 0.16 min. For the molecule `COc1cc(CNC(=O)CCCCCCC(C)C)ccc1O` [Dihydrocapsaicin], the LC retention time amounted to 2 min.

For `OCC1OC(Oc2cc(O)cc(C=Cc3ccc(O)c(O)c3)c2)C(O)C(O)C1O` (configuration not stated) [E-3,4,5'-trihydroxy-3'-glucopyranosylstilbene], the LC retention time stood at 1.33 min.

Consider `COc1cc(C=Cc2cc(O)cc(OC3OC(CO)C(O)C(O)C3O)c2)ccc1O` (configuration not stated) [E-4,5'-dihydroxy-3-methoxy-3'-glucopyranosylstilbene], for which the LC retention time was 1.42 min. Consider `O=C1CC(c2ccc(O)c(O)c2)Oc2cc(O)cc(O)c21` (configuration not stated) [Eriodictyol], for which the LC retention time worked out at 1.59 min. For the molecule `CCC(C(=O)O)C(=O)O` [Ethylmalonic acid], the LC retention time amounted to 1.12 min.

Turning to `CCCCc1ccc(C(=O)O)nc1` [Fusaric acid], the LC retention time was found to be 1.37 min. As to `OCC1OC(OC2C(O)C(O)C(O)C(O)C2O)C(O)C(O)C1O` (configuration not stated) [Galactinol Dihydrate], the LC retention time was determined as 0.16 min. Under `NC(CCC(=O)NC(CSSCC(NC(=O)CCC(N)C(=O)O)C(=O)NCC(=O)O)C(=O)NCC(=O)O)C(=O)O` (configuration not stated) [Glutathione (oxidized form)] stands 0.95 min; under `NCC(=O)NCC(=O)O` [Gly-Gly], 0.16 min. Under `NCC(=O)O` [Glycine] stands 0.16 min. On to `NC(N)=NCC(=O)O` [Glycocyamine], for which the LC retention time stood at 0.18 min. Under `CC1(C(=O)O)CCC2(C)CCC3(C)C(=CC(=O)C4C5(C)CCC(OC6OC(C(=O)O)C(O)C(O)C6OC6OC(C(=O)O)C(O)C(O)C6O)C(C)(C)C5CCC43C)C2C1` (configuration not stated) [Glycyrrhizin] stands 1.7 min. Turning to `Nc1nc2nc[nH]c2c(=O)[nH]1` [Guanine], the LC retention time came to 0.32 min. `Nc1nc2c(ncn2C2OC(COP(=O)(O)OP(=O)(O)OC3OC(CO)C(O)C(O)C3O)C(O)C2O)c(=O)[nH]1` [Guanosine-5'-diphosphate-D-mannose sodium salt]: the LC retention time amounted to 0.27 min. `Nc1nc2c(ncn2C2OC(COP(=O)(O)O)C(O)C2O)c(=O)[nH]1` (configuration not stated) [Guanosine-5'-monophosphate]: the LC retention time was determined as 0.44 min. Under `Nc1nc2c(ncn2C2OC(CO)C(O)C2O)c(=O)[nH]1` (configuration not stated) [Guanosine] stands 1.08 min; under `CCCCCCCCCCCCCCCCC` [Heptadecane], 1.81 min. Consider `COc1ccc(C2CC(=O)c3c(O)cc(OC4OC(COC5OC(C)C(O)C(O)C5O)C(O)C(O)C4O)cc3O2)cc1O` (configuration not stated) [Hesperidin], for which the LC retention time came out at 1.45 min. `CCCCCCN` [Hexylamine]: the LC retention time is 1.21 min.

With `CC(C)c1cccc(O)c(=O)c1` [Hinokitiol], the LC retention time amounted to 1.49 min. For the molecule `O=C(O)CNC(=O)c1ccccc1` [Hippuric Acid], the LC retention time turned out to be 1.29 min. Under `NCCc1cnc[nH]1` [Histamine] stands 0.14 min; under `O=C(O)Cc1cc(O)ccc1O` [Homogentisic acid], 1.1 min. Consider `COc1cc(CC(=O)O)ccc1O` [Homovanillic acid], for which the LC retention time came out at 1.33 min. In the case of `O=c1c(OC2OC(CO)C(O)C(O)C2O)c(-c2ccc(O)c(O)c2)oc2cc(O)cc(O)c12` (configuration not stated) [Hyperoside], the LC retention time is 1.4 min. Take `NCCS(=O)O` [Hypotaurine]: the LC retention time was 0.16 min. With `O=Cc1c[nH]c2ccccc12` [Indole-3-carboxyaldehyde], the LC retention time was 1.51 min. Under `O=C(O)C1=CCNCC1` [Isoguvacine hydrochloride] stands 0.18 min; under `COc1cc(-c2oc3cc(O)cc(O)c3c(=O)c2O)ccc1O` [Isorhamnetin], 1.7 min; under `C=C(CC(=O)O)C(=O)O` [Itaconic acid], 1.09 min. As to `O=C(O)c1cc(=O)c2ccccc2[nH]1` [Kynurenic acid], the LC retention time amounted to 1.19 min. With `NC(N)=NCCCC(N)C(=O)O` (stereo not drawn) [L(+)-Arginine], the LC retention time worked out at 0.16 min. Consider `NC(CCSCC(N)C(=O)O)C(=O)O` (stereo not drawn) [L(+)-Cystathionine], for which the LC retention time came to 0.16 min. As for `CC[C@H](N)C(=O)O` [L-2-Aminobutyric acid], the LC retention time came out at 0.18 min. Turning to `NCCCC[C@H](N)C(=O)O` [L-(+)-Lysine], the LC retention time is 0.15 min. Take `O=C(O)CC(O)C(=O)O` [L-(-)-Malic acid]: the LC retention time came out at 0.23 min.

In the case of `N[C@@H](Cc1ccccc1)C(=O)O` [L-(-)-Phenylalanine], the LC retention time was 1.09 min.

Consider `C[C@H](N)C(=O)O` [L-Alanine], for which the LC retention time was 0.17 min. Under `O=C1O[C@H]([C@@H](O)CO)C(O)=C1O` [L-Ascorbic acid] stands 1.15 min; under `NC(=O)C[C@H](N)C(=O)O` [L-Asparagine], 0.16 min; under `C[N+](C)(C)C[C@H](O)CC(=O)[O-]` [L-Carnitine hydrochloride], 0.18 min. Take `NCCC(=O)NC(Cc1cnc[nH]1)C(=O)O` [L-Carnosine]: the LC retention time came out at 0.16 min. As for `NC(=O)NCCC[C@H](N)C(=O)O` [L-Citrulline], the LC retention time stood at 0.18 min. For `NC(=O)CC[C@H](N)C(=O)O` [L-Glutamine], the LC retention time was 0.17 min. Under `NC(CCC(=O)NC(CS)C(=O)NCC(=O)O)C(=O)O` [L-Glutathione (reduced form)] stands 0.95 min; under `N[C@@H](Cc1cnc[nH]1)C(=O)O` [L-Histidine], 0.15 min. With `N[C@H](CO)Cc1cnc[nH]1` [L-Histidinol dihydrochloride], the LC retention time stood at 0.14 min.

Take `NCCCC(=O)NC(Cc1cnc[nH]1)C(=O)O` [L-Homocarnosine]: the LC retention time worked out at 0.16 min.

Take `N[C@@H](CCO)C(=O)O` [L-Homoserine]: the LC retention time turned out to be 0.17 min. Take `Nc1ccccc1C(=O)CC(N)C(=O)O` [L-Kynurenine]: the LC retention time was determined as 1.1 min. With `CC(C)CC(N)C(=O)O` [L-Leucine, (Cell Culture Reagent, Crystalline)] the figure was 0.53 min; with `CS(=O)(=O)CCC(N)C(=O)O` [L-Methionine sulfone], 0.18 min. Turning to `CSCC[C@H](N)C(=O)O` [L-Methionine], the LC retention time stood at 0.31 min.

Regarding `CCCC[C@H](N)C(=O)O` [L-Norleucine], the LC retention time came to 0.57 min. With `CCC[C@H](N)C(=O)O` [L-Norvaline] the figure was 0.25 min. Turning to `NCCC[C@H](N)C(=O)O` [L-Ornithine monohydrochloride], the LC retention time was found to be 0.14 min. `O=C(O)[C@@H]1CCCN1` [L-Proline]: the LC retention time came out at 0.19 min.

As for `O=C1CC[C@@H](C(=O)O)N1` [L-Pyroglutamic acid], the LC retention time was 0.41 min.

Take `N[C@@H](CO)C(=O)O` [L-Serine]: the LC retention time was 0.16 min. Turning to `C[C@@H](O)[C@H](N)C(=O)O` [L-Threonine], the LC retention time amounted to 0.17 min. In the case of `N[C@@H](Cc1c[nH]c2ccccc12)C(=O)O` [L-Tryptophane], the LC retention time was 1.16 min. In the case of `N[C@@H](Cc1ccc(O)cc1)C(=O)O` [L-Tyrosine], the LC retention time came to 0.61 min.

As to `CC(C)[C@H](N)C(=O)O` [L-Valine], the LC retention time was determined as 0.25 min. Turning to `CC[C@H](C)[C@H](N)CC(=O)O` [L-beta-Homoisoleucine hydrochloride], the LC retention time was 1.1 min. Turning to `N[C@H](CC(=O)O)Cc1ccccc1` [L-beta-Homophenylalanine hydrochloride], the LC retention time amounted to 1.16 min.

On to `CSCC[C@H](N)CC(=O)O` [L-beta-homomethionine-HCl], for which the LC retention time came out at 0.66 min. For `O=C(O)C[C@@H]1CCCN1` [L-beta-homoproline-HCl], the LC retention time came out at 0.25 min.

For `NC(CO)CC(=O)O` [L-beta-homoserine [(R)-3-Amino-4-hydroxy-butyric acid (+)]], the LC retention time came to 0.16 min. In the case of `C[C@@H](O)[C@H](N)CC(=O)O` [L-beta-homothreonine], the LC retention time is 0.19 min.

For `CC(C)C(N)CC(=O)O` [L-beta-homovaline-HCl], the LC retention time came to 0.55 min. Regarding `CC(=O)NC(CC(C)C)C(=O)NC(CC(C)C)C(=O)NC(C=O)CCCN=C(N)N` (configuration not stated) [Leupeptin hemisulfate salt], the LC retention time worked out at 1.42 min. Under `COc1ccc(-c2cc(=O)c3c(O)cc(OC4OC(COC5OC(C)C(O)C(O)C5O)C(O)C(O)C4O)cc3o2)cc1` (configuration not stated) [Linarin] stands 1.54 min; under `OCC1OC(OC2C(CO)OC(OC3C(CO)OC(O)C(O)C3O)C(O)C2O)C(O)C(O)C1O` (configuration not stated) [Maltotriose hydrate], 0.22 min.

As to `COc1cc(-c2[o+]c3cc(O)cc(O)c3cc2O)cc(OC)c1O` [Malvidin Chloride], the LC retention time turned out to be 2.15 min. On to `COc1cc(-c2[o+]c3cc(O)cc(OC4OC(CO)C(O)C(O)C4O)c3cc2OC2OC(CO)C(O)C(O)C2O)cc(OC)c1O` (configuration not stated) [Malvin chloride], for which the LC retention time amounted to 1.15 min. Take `CNC1(C)C2CCC(C2)C1(C)C` (configuration not stated) [Mecamylamine hydrochloride]: the LC retention time worked out at 1.35 min. `CS(=O)(=O)O` [Methanesulfonic acid solution]: the LC retention time stood at 0.17 min.

For `CCC=CCC1C(=O)CCC1CC(=O)OC` (configuration not stated) [Methyl Jasmonate], the LC retention time came out at 1.93 min. Under `CN=C(N)N` [Methylguanidine hydrochloride] stands 0.18 min.
